Assay results as given in PubChem BioAssay AID330 (DTP/NCI, 2004).
Where “and” joins values, the source holds several entries; their conditions need not be identical. Equal entries are not always repeated. Inconclusive results and toxic doses are left out. How the source made its calls: active means survival T/C of 150% or more; inactive means T/C below 125% in these data.

System: P388 leukemia ip, CD2F1 mice, survival T/C
Experiment: NCI In Vivo Anticancer Drug Screen. Data for tumor model P388 Leukemia (intraperitoneal) in CD2F1 (CDF1) mice
Settings: endpoint: median survival time, higher = longer survival
How it was run: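 Mice carrying the transplanted tumor received test compound or vehicle. Survival was recorded in each group, and the value is the treated-group measurement divided by that of the vehicle-treated control group.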

[1] = dose: 50.0 mg/kg/injection, schedule: Q01DX009 (ip), vehicle: saline with Tween-80
[2] = dose: 100.0 mg/kg/injection, schedule: Q01DX009 (ip), vehicle: saline with Tween-80
[3] = dose: 200.0 mg/kg/injection, schedule: Q01DX009 (ip), vehicle: saline with Tween-80
[4] = dose: 25.0 mg/kg/injection, schedule: Q01DX009 (ip), vehicle: Klucel (hydroxypropylcellulose) (HPC)

Measured: T/C

Cc1c2ccccc2c(C)c2c1cc(F)c1ccccc12
inactive: dose: 50.0 mg/kg/injection, schedule: Q04DX003 (ip), vehicle: Klucel (hydroxypropylcellulose) (HPC) 105 % of control | dose: 100.0 mg/kg/injection, schedule: Q04DX003 (ip), vehicle: Klucel (hydroxypropylcellulose) (HPC) 105 % of control | dose: 200.0 mg/kg/injection, schedule: Q04DX003 (ip), vehicle: Klucel (hydroxypropylcellulose) (HPC) 113 % of control | dose: 400.0 mg/kg/injection, schedule: Q04DX003 (ip), vehicle: Klucel (hydroxypropylcellulose) (HPC) 117 % of control

COc1ccc(-c2sc(C)nc2O)cc1
inactive: [1] 101 % of control | [2] 94 % of control | [3] 98 % of control

CCCCN(CCCC)CC(O)c1ccc2cc(Cl)cc(Cl)c2n1 (centres undefined)
inactive: dose: 6.25 mg/kg/injection, schedule: Q01DX009 (ip), vehicle: saline with Tween-80 90 % of control | dose: 12.5 mg/kg/injection, schedule: Q01DX009 (ip), vehicle: saline with Tween-80 100 % of control | dose: 25.0 mg/kg/injection, schedule: Q01DX009 (ip), vehicle: saline with Tween-80 100 % of control

CC1(C)CC([N+](C)(C)CCCCCC[N+](C)(C)C2CC(C)(C)N(O)C(C)(C)C2)CC(C)(C)N1O
inactive: dose: 12.5 mg/kg/injection, schedule: Q04DX003 (ip), vehicle: saline 105 % of control | dose: 25.0 mg/kg/injection, schedule: Q04DX003 (ip), vehicle: saline 100 % of control | dose: 50.0 mg/kg/injection, schedule: Q04DX003 (ip), vehicle: saline 103 % of control and 108 % of control

Cc1cccc2c1/C(=C1/c3ccccc3C(=O)c3cccc(C)c31)c1ccccc1C2=O
inactive: dose: 50.0 mg/kg/injection, schedule: Q01DX005 (ip), vehicle: Klucel + Tween-80 87 % of control | dose: 100.0 mg/kg/injection, schedule: Q01DX005 (ip), vehicle: Klucel + Tween-80 90 % of control

Cc1ccc(S(=O)(=O)C(Br)CC(=O)c2ccccc2)cc1 (centres undefined)
inactive: dose: 100.0 mg/kg/injection, schedule: Q04DX002 (ip), vehicle: saline 100 % of control | dose: 200.0 mg/kg/injection, schedule: Q04DX002 (ip), vehicle: saline 101 % of control | dose: 400.0 mg/kg/injection, schedule: Q04DX002 (ip), vehicle: saline 109 % of control

NC(CCCCNC=O)C(=O)O (centres undefined)
inactive: dose: 50.0 mg/kg/injection, schedule: Q01DX005 (ip), vehicle: saline 104 % of control | dose: 100.0 mg/kg/injection, schedule: Q01DX005 (ip), vehicle: saline 98 % of control | dose: 200.0 mg/kg/injection, schedule: Q01DX005 (ip), vehicle: saline 96 % of control

Clc1ccc(N=Cc2ccc(C=Nc3ccc(Cl)cc3)cc2)cc1
inactive: dose: 6.25 mg/kg/injection, schedule: Q01DX009 (ip), vehicle: Klucel (hydroxypropylcellulose) (HPC) 94 % of control | dose: 12.5 mg/kg/injection, schedule: Q01DX009 (ip), vehicle: Klucel (hydroxypropylcellulose) (HPC) 91 % of control | [4] 94 % of control

CC1(C)OC(=O)C(Cc2ccco2)C(=O)O1
inactive: dose: 100.0 mg/kg/injection, schedule: Q04DX002 (ip), vehicle: saline with Tween-80 97 % of control | dose: 200.0 mg/kg/injection, schedule: Q04DX002 (ip), vehicle: saline with Tween-80 106 % of control | dose: 400.0 mg/kg/injection, schedule: Q04DX002 (ip), vehicle: saline with Tween-80 101 % of control

Cc1ccc(S(=O)(=O)OCC2OC(OC3(CO)OC(COS(=O)(=O)c4ccc(C)cc4)C(O)C3O)C(O)C(O)C2O)cc1 (centres undefined)
inactive: [1] 100 % of control | [2] 98 % of control | [3] 99 % of control

Cc1c(Cl)cccc1NC(=O)Nc1nccs1
inactive: [4] 90 % of control | dose: 50.0 mg/kg/injection, schedule: Q01DX009 (ip), vehicle: Klucel (hydroxypropylcellulose) (HPC) 93 % of control | dose: 100.0 mg/kg/injection, schedule: Q01DX009 (ip), vehicle: Klucel (hydroxypropylcellulose) (HPC) 100 % of control

Oc1ccc(C(O)CNCCCCCCNCC(O)c2ccc(O)c(O)c2)cc1O (centres undefined)
inactive: dose: 33.0 mg/kg/injection, schedule: Q01DX009 (ip), vehicle: saline 99 % of control and 88 % of control | dose: 50.0 mg/kg/injection, schedule: Q01DX009 (ip), vehicle: saline 121 % of control and 87 % of control and 96 % of control | dose: 75.0 mg/kg/injection, schedule: Q01DX009 (ip), vehicle: saline 96 % of control

CCCCCCCCCCCCCCCCCC(=O)CS(C)(=O)=O
inactive: dose: 50.0 mg/kg/injection, schedule: Q01DX009 (ip), vehicle: suspension in saline 100 % of control | dose: 100.0 mg/kg/injection, schedule: Q01DX009 (ip), vehicle: suspension in saline 100 % of control | dose: 200.0 mg/kg/injection, schedule: Q01DX009 (ip), vehicle: suspension in saline 97 % of control
